In PMC7279216, “Identification of Inhibitors to Trypanosoma cruzi Sirtuins Based on Compounds Developed to Human Enzymes” (International Journal of Molecular Sciences, 2020):
Read-outs that look alike come from different tables or passages of the source.

How the values were obtained:
[1] = Host cell cytotoxicity in high content assay; details: human
[2] = test system: T. cruzi Y H10 strain; assay: High content assay (HCA), T. cruzi in vitro infection of U2OS cells; assay type: cell-based, Trypanosoma cruzi; details: for EC50: read-out: EC50 Value (reduces 50% of infected cells number); for SI (selectivity index = CC50/EC50): U2OS CC50 / T. cruzi EC50
[3] = test system: SIRT1; parameters: method as in ref 22, 27 and unpublished results; details: 27 and unpublished results, cited from earlier work; for IC50: read-out: IC50 against human SIRT1
[4] = test system: SIRT2; parameters: method as in ref 22, 27 and unpublished results; details: 27 and unpublished results, cited from earlier work; for IC50: read-out: IC50 against human SIRT2
[5] = target: TcSir2rp3 (Trypanosoma cruzi, UniProt Q4E5B9); assay: biochemical; details: for inhibition at 5 µM: read-out: % of inhibition of TcSir2rp3 deacetylase activity
[6] = test system: T. cruzi Y H10 strain; assay: Combinatory high content assay of SIRTi with BZN, T. cruzi in vitro infection; assay type: cell-based, Trypanosoma cruzi; details: for combinatory effect with benznidazole, overall: combination with BZN; for trypanocidal activity of SIRTi+BZN compared to BZN alone / trypanocidal activity of SIRTi+BZN compared to SIRTi alone: combination with BZN at constant EC50 ratios
[7] = target: TcSir2rp1 (Trypanosoma cruzi, UniProt Q4DP02); assay: biochemical; assay type: biochemical; details: for inhibition of TcSir2rp1 deacetylase activity: 5 µM
[8] = test system: SIRT5; parameters: method as in ref 27 and unpublished results; details: ref 27 and unpublished results; cited from earlier work
[9] = U2OS cells infected with T. cruzi Y H10 trypomastigotes
[10] = Trypanosoma cruzi, U2OS, 96 h, U2OS cells infected with T. cruzi, 96 hours incubation
[11] = Ratio 1, EC50 ratio 1/32 (BZN 0.8 µM)
[12] = Ratio 2, EC50 ratio 1/16 (BZN 1.5 µM)
[13] = Ratio 3, EC50 ratio 1/8 (BZN 3 µM)
[14] = Ratio 4, EC50 ratio 1/4 (BZN 6 µM)
[15] = Ratio 5, EC50 ratio 1/2 (BZN 12 µM)
[16] = Ratio 6, EC50 ratio 1 (BZN 24 µM)
[17] = Ratio 7, EC50 ratio 2 (BZN 48 µM)

Sequence of TcSir2rp3 (Q4E5B9 entry or part of it): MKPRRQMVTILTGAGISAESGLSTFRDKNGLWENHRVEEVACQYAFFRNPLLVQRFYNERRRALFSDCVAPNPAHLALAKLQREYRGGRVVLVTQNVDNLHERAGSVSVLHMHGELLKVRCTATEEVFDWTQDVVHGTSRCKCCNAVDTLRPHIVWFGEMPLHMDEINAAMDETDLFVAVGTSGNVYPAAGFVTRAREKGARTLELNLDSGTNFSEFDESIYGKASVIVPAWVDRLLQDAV
Sequence of TcSir2rp1 (Q4DP02 entry or part of it): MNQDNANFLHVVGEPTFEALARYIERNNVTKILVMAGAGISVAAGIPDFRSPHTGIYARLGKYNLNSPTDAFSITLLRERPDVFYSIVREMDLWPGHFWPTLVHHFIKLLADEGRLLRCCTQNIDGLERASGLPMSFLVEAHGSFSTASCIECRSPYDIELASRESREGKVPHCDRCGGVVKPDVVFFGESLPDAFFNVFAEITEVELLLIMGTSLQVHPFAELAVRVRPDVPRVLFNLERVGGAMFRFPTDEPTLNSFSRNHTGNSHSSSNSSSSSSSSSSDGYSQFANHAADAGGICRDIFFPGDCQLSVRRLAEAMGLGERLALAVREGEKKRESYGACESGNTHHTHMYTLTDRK

| Compound | CC50 at 96 h [1, 9] [µM] | EC50 ([2]; Trypanosoma cruzi, U2OS, 96 h) [µM] | SI (selectivity index = CC50/EC50) [2] | IC50 [3] [µM] | IC50 [4] [µM] | inhibition at 5 µM [5] [%] | IC50 ([5]; read-out: TcSir2rp3 IC50 ± SD) [µM] | EC50 [2, 10] [µM] | IC50 against human SIRT2 [4] | combinatory effect with benznidazole, overall [6] | trypanocidal activity of SIRTi+BZN compared to BZN alone [6] | inhibition of TcSir2rp1 deacetylase activity [7] | other results |
| --- | --- | --- | --- | --- | --- | --- | --- | --- | --- | --- | --- | --- | --- |
| O=C(Cn1ccnc1[N+](=O)[O-])NCc1ccccc1 [BZN, benznidazole, reference compound] | > 200 | 1.96 | > 102 |  |  |  |  |  |  |  |  |  |  |
| CC(CSc1cccc(/N=C/c2c(O)ccc3ccccc23)c1)c1ccccc1 (stereo not shown) [Compound 8] | 76.8 |  | 1.89 | ~40 | ~20 | > 30 | 18.8 ± 5.34 | 40.6 |  |  |  |  |  |
| O=c1[nH]c(SCc2ccc3ccccc3c2)nc(-c2ccccc2)c1Cc1c(O)ccc2ccccc12 [Compound 12] | 48.8 |  | 1.38 | > 150 | 6.3 | > 30 | 14.3 ± 6.06 | 35.4 | single-digit micromolar | low or no synergism | no difference |  | type of interaction with BZN ([6]; 1/4 ratio): synergistic effect; CI (combinatory index) with BZN [6, 11]: 6.6; CI (combinatory index) with BZN [6, 12]: 13.2; CI (combinatory index) with BZN [6, 13]: 1.02; CI (combinatory index) with BZN [6, 14]: 0.82; CI (combinatory index) with BZN [6, 15]: 1.14; CI (combinatory index) with BZN [6, 16]: 1.48; CI (combinatory index) with BZN [6, 17]: 2.29; type of interaction with BZN ([6]; ratios 1/8, 1/2 and 1/1): additive effect; type of interaction with BZN ([6]; ratios lower than 1/8): antagonistic effect |
| O=C(CSc1nc(-c2ccccc2)c(Cc2c(O)ccc3ccccc23)c(=O)[nH]1)c1ccccc1 [Compound 13] | > 100 |  | > 2.2 | > 150 |  | > 30 | 18.5 ± 1.97 | 45.1 | single-digit micromolar |  |  |  |  |
| CCCCCSc1nc(-c2ccccc2)c(Cc2c(O)ccc3ccccc23)c(=O)[nH]1 [Compound 15] | 36.4 |  | 1.89 | > 150 |  |  |  | 19.4 | single-digit micromolar |  |  | inhibited TcSir2rp1 activity | IC50 [7]: 32.4 ± 7.88 µM; EC50 ([2]; U2OS cells infected with T. cruzi, 96 hours incubation): 19.4 µM |
| O=c1[nH]c(N/N=C/c2ccc([N+](=O)[O-])cc2)nc(-c2ccccc2)c1Cc1c(O)ccc2ccccc12 [Compound 17] | 19.6 |  | 2.31 | ~50 | ~50 |  |  | 8.5 |  | synergistic effects | no increase in trypanocidal activity | inhibited TcSir2rp1 activity | IC50 [7]: 25.5 ± 4.73 µM; CI (combinatory index) with BZN [6, 11]: 0.38; CI (combinatory index) with BZN [6, 12]: 0.69; CI (combinatory index) with BZN [6, 13]: 0.73; CI (combinatory index) with BZN [6, 14]: 0.74; CI (combinatory index) with BZN [6, 15]: 1.25; CI (combinatory index) with BZN [6, 16]: 2.45; CI (combinatory index) with BZN [6, 17]: 3.52; trypanocidal activity of SIRTi+BZN compared to SIRTi alone [6]: increase in the trypanocidal activity; type of interaction with BZN ([6]; ratios 1/2, 1, and 2): antagonistic effect; type of interaction with BZN ([6]; ratios lower than 1/4): tendency towards a synergistic effect |
| CCOC(=O)/C(=C\c1cc(C(=O)c2ccccc2OC)c[nH]1)C(=O)Nc1cccc2ncccc12 [Compound 27] | 46.9 |  | 8.18 |  | 10.5 |  |  | 5.73 |  |  |  | did not show potent inhibitory effect | % of inhibition of TcSir2rp3 deacetylase activity ([5]; 5 µM): did not show potent inhibitory effect |
| CCN1C(=O)/C(=C\c2ccc(-c3ccc(Cl)c(Cl)c3)o2)C(=O)NC1=S [Compound 30] |  | 42.7 |  |  |  | > 30 |  |  | single-digit micromolar |  |  |  | IC50 against human SIRT1 [3]: single-digit micromolar; CC50 at 96 h [1]: > 100 µM; IC50 against human SIRT5 [8]: single-digit micromolar |
| CCCN1C(=O)/C(=C\c2ccc(-c3ccc(Cl)c(Cl)c3)o2)C(=O)NC1=S [Compound 31] |  |  |  |  |  |  |  |  |  |  |  |  | IC50 [5]: 16.3 ± 9.54 µM |
| C=CCN1C(=O)/C(=C\c2ccc(-c3ccc(Cl)c(Cl)c3)o2)C(=O)NC1=S [Compound 32] |  | 39.8 |  |  |  | > 30 |  |  | single-digit micromolar | synergistic effects | not if compared to BZN alone |  | IC50 against human SIRT1 [3]: single-digit micromolar; IC50 [5]: 16.4 ± 6.7 µM; CC50 at 96 h [1]: 77 µM; IC50 against human SIRT5 [8]: single-digit micromolar; type of interaction with BZN ([6]; all concentration ratios lower than 1/2): synergistic effect; trypanocidal activity of SIRTi+BZN compared to SIRTi alone [6]: increased the trypanocidal activity |
